Key:
adults with IH [1] = assay: Phase 2 IH study: Epworth Sleepiness Scale (ESS); assay type: in vivo, human; details: for ESS, Mean, Randomization Baseline (Week 5): end of open-label titration; for ESS, Difference in LS Mean (SE): SDX vs placebo, ANCOVA
Source text: “Epworth Sleepiness Scale” or “ESS,” as it relates to the present technology, means a self-administered questionnaire with 8 questions. Respondents are asked to rate, on a 4-point scale (0-3), their usual chances of dozing off or falling asleep while engaged in eight different activities. Most people engage in those activities at least occasionally, although not necessarily every day. The ESS score (the sum of 8 item scores, 0-3) can range from 0 to 24. The higher the ESS score, the higher that person's average sleep propensity in daily life (ASP), or their ‘daytime sleepiness’. ESS score are generally interpreted as follows: 0-5, lower normal daytime sleepiness; 6-10 higher normal daytime sleepiness; 11-12, mild excessive daytime sleepiness; 13-15, moderate excessive daytime sleepiness; and 16-24, severe excessive daytime sleepiness. [https://epworthsleepinessscale.com/about-theess/]herein incorporated by reference.
(§1) A double-blind, placebo-controlled, randomized-withdrawal, dose-optimizing, multi-center study investigated the safety and efficacy of serdexmethylphenidate for the treatment of IH. Twenty-two (22) patients completed a 7-week study consisting of two parts. Part 1 of the trial comprised a five-week open-label titration phase during which patients were optimized to one of four total daily doses of serdexmethylphenidate (80, 160, 240, or 320 mg/day). About half the study participants were assigned to take the total daily dose of study drug once per day just before going to bed (QD dosing cohort). The other half was instructed to take half the daily dose of study drug in the morning after awakening and the second half of the daily dose just before going to bed (BID dosing cohort). The titration procedure during the 5-week open label period was conducted as follows: patient treatment was initiated with the lowest total daily dose (80 mg/day) regardless of dosing regimen. At subsequent clinical visits scheduled at intervals of about 1 week each, the dose of the patient was either decreased (except after the first week), maintained, or increased based on tolerability, clinical effect, and adverse events. Depending on the severities of any dose-limiting effects as determined by the clinician, the dose was decreased if possible or the patient was discontinued from the study. If the dose was tolerated by the patient and the clinician determined an opportunity to improve effectiveness, the dose of study drug was increased if possible. Otherwise, the dose was maintained in the subsequent week.
(§2) Part 2 of the trial comprised a two-week randomized (2:1), double-blind, withdrawal phase, during which two-thirds of the trial participants continued to receive their optimized dose while the remaining one-third received placebo. During the withdrawal phase, patients continued the same dosing regimen (QD or BID) they were assigned to at treatment initiation and adhered to during the titration phase.
(§3) Secondary efficacy endpoints included Excessive Daytime Sleepiness (EDS) assessed with the Epworth Sleepiness Scale (ESS). Additional secondary endpoints were based on the Idiopathic Hypersomnia Severity Scale (IHSS), daily rating of difficulty of waking up in the morning assessed with the Sleep Inertia Visual Analog Scale (SI-VAS), and rating of brain fog symptoms measured with an exploratory Brain Fog Scale (BFS). Scores on the ESS, IHSS, and BFS were based on a 1-week look-back period.
The minimally clinically important difference for the ESS scale is 2-3 points. The horizontal dashed line at an ESS score of 10 points marks the boundary between “normal” levels of daytime sleepiness and “excessive” levels of daytime sleepiness. Scores of 10 and less are generally considered “healthy” or “normal” levels of daytime sleepiness whereas scores greater than 10 are considered “excessive”.

[2] = Comparison of serdexmethylphenidate to other prescription treatments for sleep disorders (key attributes)
Source text: The data presented in the preceding examples supports the conclusion that serdexmethylphenidate has several advantages over other treatments for IH.
Most importantly, serdexmethylphenidate improves IH, EDS, SI, and BF symptoms; none of the other treatment options in Table 6 improve symptoms in all of the instant sleep disorder. […] Additionally, serdexmethylphenidate has advantageous dosing amounts and dosing schedules compared to both XYWAV® and LUMRYZ®. For example, XYWAV® requires two nighttime dosages, whereas serdexmethylphenidate reduces sleep disorder symptoms with only a single dose before bedtime.

[3] = Single oral dose of 240 mg serdexmethylphenidate in the morning or at night before bedtime, randomized crossover; plasma d-MPH PK by LC/MS-MS; assay type: in vivo, human; details: evening vs morning dosing
Experimental: Heathy adult subjects received single oral doses of 240 mg serdexmethylphenidate, either in the morning or at night, just before bedtime, in a randomized crossover fashion with a washout of 6 days between treatments. Subjects went to bed and nighttime conditions were maintained after administration of the evening dose. Multiple blood PK samples and safety parameters were collected after each administration. d-MPH was measured with a validated LC/MS-MS method. A total of 15 subjects (9 males/6 females) were randomized with 14 completing both treatments.

adults with IH [4] = assay: Phase 2 IH study: Idiopathic Hypersomnia Severity Scale (IHSS); assay type: in vivo, human; details: for IHSS, Mean, Titration Baseline: before treatment; for IHSS, Mean, Randomization Baseline (Week 5): end of open-label titration; for IHSS, Difference in LS Mean (SE): SDX vs placebo, ANCOVA
Source text: “Idiopathic Hypersomnia Severity Scale” or “IHSS,” as it relates to the present technology, means a self-administered 14 question survey. Respondents are asked to rate on a 4-point scale (0-3) the severity of IH symptoms such as prolonged and/or unrefreshing daytime and nighttime sleep; impaired daytime alertness, and sleep inertia. The total possible score is 50 if all questions are rated at the maximum score. IHSS scores are generally interpreted as follows: 0-12, mild; 13-25, moderate; 26-38, severe; and 39-50, very severe.
as §1, §2, §3
The minimally clinically important difference for the IHSS is 4 points. The horizontal dashed line at an IHSS score of 22 points marks the boundary between “normal” individuals and individuals that may have a sleep disorder with more severe symptoms of idiopathic hypersomnia. Scores of 22 and less are generally considered “healthy” or “normal” whereas scores greater than 22 indicate symptoms of idiopathic hypersomnia.

[5] = Comparator study with Ritalin: plasma d-MPH PK; assay type: in vivo, human; details: for CL/F - Geo Mean: plasma d-MPH
Experimental: Ritalin is a racemate of d-methylphenidate approved for treating narcolepsy, which is a similar disorder of hypersomnolence characterized by significant excessive daytime sleepiness. The PK profiles of patient administered 80 mg or 200 mg of serdexmethylphenidate are compared to the PK profiles of patients administered 40 mg of Ritalin twice, 5 hours apart, and a single dose of 80 mg of Ritalin.

[6] = single 80 mg and single 200 mg doses

COC(=O)[C@H](c1ccccc1)[C@H]1CCCCN1C(=O)OC[n+]1cccc(C(=O)N[C@@H](CO)C(=O)O)c1 [SDX, serdexmethylphenidate]
ESS, Mean, Randomization Baseline (Week 5) (adults with IH [1]; BID Cohort, SDX (N = 17)): 7.5
ESS, Difference in LS Mean (SE) (adults with IH [1]; BID Cohort, p-value 0.005): −5.6 (1.88)
ESS, Mean Change from Randomization Baseline to Week 7 (adults with IH [1]; QD Cohort, SDX (N = 15)): 0.0
ESS, Mean, End of Withdrawal Period (Week 7) (adults with IH [1]; QD Cohort, SDX (N = 15)): 7.5
ESS, Mean, Titration Baseline (adults with IH [1]; QD Cohort, SDX (N = 15), before treatment): 16.9
ESS, Mean, Randomization Baseline (Week 5) (adults with IH [1]; QD Cohort, SDX (N = 15)): 7.5
ESS, Difference in LS Mean (SE) (adults with IH [1]; QD Cohort, p-value 0.818): 0.5 (2.07)
Decrease in mean ESS score (adults with IH [1]; both QD and BID cohorts, end of the 5-week titration period): 8-10 points
Abnormal Rapid Eye Movement (REM) sleep cycles [2]: does not result in abnormal Rapid Eye Movement (REM) sleep cycles
IH, EDS, SI, and BF symptoms [2]: improves
Total plasma exposure to d-methylphenidate (AUC0-24h and AUCinf) [3]: similar
IHSS, Mean Change from Randomization Baseline to Week 7 (adults with IH [4]; BID Cohort, SDX (N = 17)): 0.3
IHSS, Mean, End of Withdrawal Period (Week 7) (adults with IH [4]; BID Cohort, SDX (N = 17)): 21.6
IHSS, Mean, Titration Baseline (adults with IH [4]; BID Cohort, SDX (N = 17)): 34.3
IHSS, Mean, Randomization Baseline (Week 5) (adults with IH [4]; BID Cohort, SDX (N = 17)): 21.3
IHSS, Difference in LS Mean (SE) (adults with IH [4]; BID Cohort, p-value 0.104): −9.0 (3.48)
IHSS, Mean Change from Randomization Baseline to Week 7 (adults with IH [4]; QD Cohort, SDX (N = 15)): 0.7
IHSS, Mean, End of Withdrawal Period (Week 7) (adults with IH [4]; QD Cohort, SDX (N = 15)): 19.3
IHSS, Mean, Titration Baseline (adults with IH [4]; QD Cohort, SDX (N = 15)): 35.4
IHSS, Mean, Randomization Baseline (Week 5) (adults with IH [4]; QD Cohort, SDX (N = 15)): 18.6
IHSS, Difference in LS Mean (SE) (adults with IH [4]; QD Cohort, p-value 0.208): 0.9 (3.73)
Decrease in mean IHSS score (adults with IH [4]; all patients, 5-week titration period): 12-17 points
Change in mean IHSS score (adults with IH [4]; patients continuing treatment during the 2-week withdrawal period): no more than 0.7 points
CL/F - Geo Mean ([5]; SDX 80 mg (N = 14)): (283) L/h
CL/F - Geo Mean ([5]; SDX 200 mg (N = 14)): (304) L/h
AUC0-24 and AUCinf compared to Ritalin [5, 6]: higher
Cmax concentrations compared to Ritalin [5, 6]: lower
Tmax compared to Ritalin [5, 6]: longer

Source: US20250375436A1, “SERDEXMETHYLPHENIDATE FOR TREATMENT OF IDIOPATHIC HYPERSOMNIA” (ZEVRA THERAPEUTICS, INC., priority 2024, published 2025)
